“Also recorded” adds a separate entry of the source.
How the values were obtained:
[1] = test system: human beta-cell line (INS-1 832/13); test: Viability assay (PrestoBlue) of beta-cell line with single amino acids, double crosses and blends, Example 4; conditions: for effect of single amino acid on cell viability: 5-hour exposure in PBS; for effect on cell viability in single / double crosses: each amino acid at 1 mg/mL; for effect on cell viability at the highest doses / higher concentrations: single amino acids
Procedure: The human beta-cell line (INS-1 832/13) was expanded and maintained in RPMI-1640 growth media during expansion. Cells were grown and sustained in T75 cell culture flasks in an incubator at 37° C. and 5% CO2. Cells were passaged every 4th day via trypsinization. All cell media changes and passage work was done under a biosafety hood to ensure sterility of the cultures. Readings were obtained from the EnSpire Multimode Plate Reader (Perkin Elmer) with excitation of 560 nm and emission of 590 nm. To avoid plate edge effects the outer wells of each plate were used as blanks.
The INS-1 832/13 cell line, a derivation of the INS-1 cell line, was cultured in a growth medium consisting of RPMI-1640, along with 1 M HEPES buffer solution, 50×INS supplement (glutamine, Na-pyruvate, and B-mercaptoethanol), Antibiotic-Antimycotic (Gibco by LifeTechnologies), and Fetal Bovine Serum (HyClone). Cells were grown and sustained in a T75 cell culture flask. The cells were placed in a humidified incubator at 37° C. and 5% CO2. Due to the rapid growth of these cells, media was changed on every second day and passaged on every fourth day via trypsinization. When cells were confluent, they were exposed to amino acids as described below.
Pilot studies were undertaken with 6 single amino acids to determine the optimal conditions for cell testing, and the optimal time for exposure to the amino acids. […] Thus, a second trial was undertaken removing the media and placing cells in phosphate buffered saline at the time of the amino acid addition. […] Thus, the optimal conditions were determined to be a 5-hour exposure to the amino acids in PBS.
For the full study, cells plated in 384-well plates were exposed to individual amino acids at 10 full-log doses for 4 hours at 37° C. and 5% CO2. PrestoBlue (10%) was added to each well using the Hamilton Star Automated Fluid Handling System, and 1 hour later, for a total of 5 hours of exposure to the amino acids.
The plates were loaded into the EnSpire plate reader with excitation of 560 nm and emission of 590 nm excitation wavelengths.
Amino acids were added to a minimal buffer in full log concentrations starting at 1E−08 through 10 mg/mL. […] In the graph, the data have been normalized to cell viability in minimal buffer with no amino acids (100%).
Thus, a concentration of 1 mg/mL of a single amino acid is actually a 5 mg/mL of the full blend, because there are 5 different amino acids in each blend mixed in equal amounts.

rat islets [2] = test: Dithizone staining / light microscopy of rat islets; assay type: cell-based; conditions: day 1
Excerpt: Islets were exposed to a single dose of Amino Acid Formulation #1 or cysteine for 11 days. FIG. 1 illustrates images of islets from each condition on day 1, stained with dithizone, which identifies islet cells via dark red color.
In the control media, the same was found.

rat islets [3] = test: Islet survival (number of islets over time in culture); assay type: cell-based
Excerpt: The objective of the experiment was to test the effect of long-term exposure of rat islets to Amino Acid Formulation #1 and compare those results to the currently-marketed amino acid, cysteine. A group without added amino acids was used as a control group. The comparison was based on the number of dead cells within islets over time, a count of the number of islets surviving over time, and the functional test of cellular metabolism after long-term exposure.
Rat islets were isolated from the pancreata of female animals under approved protocol and SOPs. […] The imaging capabilities of the Cytation plate reader was utilized for survival values.
All groups began with the same number of total islets per group.

rat islets [4] = test: Viability assay of rat islets (Yo-Pro / propidium iodide staining); assay type: cell-based; conditions: for Apoptotic Cells (%) / Live Cells (%) / Necrotic Cells (%): 1 g/L in RPMI, 11.6 mM glucose
Procedure: During the long-term (11 day) exposure, the islets were administered Amino Acid Formulation #1 or cysteine (at the same concentration) or culture media with no added amino acids.
Isolated rat islets were cultured in 100 cm^2 cell culture plates (untreated) in 20 ml of Roswell Park Memorial Institute (RPMI) media. […] Islets were removed from the dish and placed in 50 ml tubes. Islets were allowed time to settle to the bottom of the tube. The excess media was removed, and the islets were moved to microcentrifuge tubes, and DPBS solution was added to each tube. Cells were washed and fresh DPBS added.
Islets had media changed every 2 days with continuous exposure to Amino Acid Formulation #1, Cysteine alone, or media alone. Amino Acid Formulation #1 was prepared in the lab using amino acid capsules: […]
The working solutions contained 1 g/1 L concentration of Amino Acid Formulation #1 or cysteine alone prepared in RPMI.
25-50 islets were removed from the dishes and placed in 50 ml tubes. Islets were allowed time to settle to the bottom of the tube. The excess media was removed, and the islets were moved to microcentrifuge tubes, and DPBS solution was added to each tube. Cells were washed and fresh DPBS added. Propidium iodide and yo-pro were added to the tubes at a ratio of 1 μl reagent to 1 ml cells in DPBS.
Individual wells of 96-well plates were manually loaded with 10-15 islets each and checked visually under a microscope for consistency between wells. 30 minutes later, the plates were loaded into the BioTeck plate reader with readings for Yo-Pro and Propidium iodide with additional verification of islet tissue using dithizone staining.
Results were saved as images for later cellular analysis.
All islets identified in each condition were scored for the percent area of apoptotic and necrotic cells. The remaining percentage was calculated as live cells.

[5] = Dissolution of test articles in RPMI working solutions; assay type: physicochemical; conditions: 1 g/1 L in RPMI, after 24 hours at 37° C.
Procedure: The working solutions contained 1 g/1 L concentration of Amino Acid Formulation #1 or cysteine alone prepared in RPMI. […] The working medium was kept at 37° C. in incubator with islets.

N[C@@H](CS)C(=O)O [Cysteine, L-Cysteine]
effect of single amino acid on cell viability ([1]; 0.01 mg/mL and higher): positive impact on cell viability
effect on cell viability in single / double crosses [1]: most positive effect on cell health
effect on cell viability at the highest doses / higher concentrations [1]: improve viability at the higher concentrations tested
islets with core cell death (rat islets [2]): approximately 30%
islets found in the group (rat islets [3]; day 8): No islets could be identified; also recorded: no live islets could be found
islet survival time in culture (rat islets [3]; no islets survived past this time): ≤ 6 days
number of islets as % of the Amino Acid Formulation #1 group (rat islets [3]; within 24 hours of exposure): 78%
route of cell death (apoptosis / necrosis) (rat islets [4]): both apoptosis and necrosis
cell death (Yo-Pro and Propidium Iodide staining) (rat islets [4]; 24 hours exposure, compared with control and Formulation #1): greater than the other 2
Apoptotic Cells (%) (rat islets [4]; Day 1): 18.2 + 21.3%
Live Cells (%) (rat islets [4]; Day 1): 58.4 ± 33.4 %
Necrotic Cells (%) (rat islets [4]; Day 1): 23.4 ± 20.4%
Apoptotic Cells (%) (rat islets [4]; Day 4): 47.1 ± 35.9%
Live Cells (%) (rat islets [4]; Day 4): 42.0 ± 39.8 %
Necrotic Cells (%) (rat islets [4]; Day 4): 10.9 + 13.4%
viability compared with the other groups (rat islets [4]; days 1, 4 and 8): significantly lower viability than the other two groups
undissolved crystals in working solution [5]: still had microscopic crystals that had not gone completely into solution

N=C(N)NCCC[C@H](N)C(=O)O [arginine, L-Arginine]
effect on cell viability in single / double crosses [1]: decrease in cell viability when added to any other amino acid
effect on cell viability at the highest doses / higher concentrations [1]: negative effects on cell viability at the highest doses
effect of single amino acid on cell viability ([1]; starting at 1 mg/mL): dramatic reductions in the viability

NC(=O)C[C@H](N)C(=O)O [asparagine, L-Asparagine]
cells left in the dish that were alive ([1]; double cross: another 1 mg/mL of asparagine added to 1 mg/mL asparagine): 18%
effect on cell viability in single / double crosses [1]: dramatic reduction in beta cell viability
effect on cell viability at the highest doses / higher concentrations [1]: negative effects on cell viability at the highest doses
effect of single amino acid on cell viability ([1]; starting at 1 mg/mL): dramatic reductions in the viability

N[C@@H](Cc1c[nH]cn1)C(=O)O [histidine, L-Histidine]
effect on cell viability in single / double crosses [1]: very little effect on cell viability except when paired with asparagine or arginine
cells killed (fraction, words) ([1]; single amino acid, high doses (from 1 mg/mL)): approximately half
effect of single amino acid on cell viability ([1]; starting at 1 mg/mL): dramatic reductions in the viability

N[C@@H](CO)C(=O)O [serine, L-Serine]
effect of single amino acid on cell viability ([1]; 10 mg/mL): slightly positive increases in viability

C[C@@H](O)[C@H](N)C(=O)O [threonine, L-Threonine]
effect of single amino acid on cell viability ([1]; 10 mg/mL): slightly positive increases in viability
